In patent publication US20220002314A1 (priority 2018, published 2022):
Where two headings read alike, the source gives them in different places.

Experiments:
[1] = target: Human α2δ-1 subunit of Cav2.2 calcium channel (Homo sapiens, UniProt P54289); assay: biochemical; type: binding
Human μ-opioid receptor = Human μ-opioid receptor (Homo sapiens, UniProt P35372); assay: biochemical; type: binding
Chain of Human μ-opioid receptor (P35372 whole entry): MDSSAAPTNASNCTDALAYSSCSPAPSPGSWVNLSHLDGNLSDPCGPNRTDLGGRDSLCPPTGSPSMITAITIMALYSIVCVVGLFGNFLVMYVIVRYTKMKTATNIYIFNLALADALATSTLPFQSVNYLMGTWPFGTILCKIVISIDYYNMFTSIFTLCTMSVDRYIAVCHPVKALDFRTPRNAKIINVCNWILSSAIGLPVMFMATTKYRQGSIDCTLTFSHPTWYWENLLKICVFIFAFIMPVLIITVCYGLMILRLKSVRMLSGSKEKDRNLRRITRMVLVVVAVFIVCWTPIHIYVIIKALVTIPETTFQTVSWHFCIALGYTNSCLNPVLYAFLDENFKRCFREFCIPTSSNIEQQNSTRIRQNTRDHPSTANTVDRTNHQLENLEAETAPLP

Chain of Human α2δ-1 subunit of Cav2.2 calcium channel (P54289 25-1103): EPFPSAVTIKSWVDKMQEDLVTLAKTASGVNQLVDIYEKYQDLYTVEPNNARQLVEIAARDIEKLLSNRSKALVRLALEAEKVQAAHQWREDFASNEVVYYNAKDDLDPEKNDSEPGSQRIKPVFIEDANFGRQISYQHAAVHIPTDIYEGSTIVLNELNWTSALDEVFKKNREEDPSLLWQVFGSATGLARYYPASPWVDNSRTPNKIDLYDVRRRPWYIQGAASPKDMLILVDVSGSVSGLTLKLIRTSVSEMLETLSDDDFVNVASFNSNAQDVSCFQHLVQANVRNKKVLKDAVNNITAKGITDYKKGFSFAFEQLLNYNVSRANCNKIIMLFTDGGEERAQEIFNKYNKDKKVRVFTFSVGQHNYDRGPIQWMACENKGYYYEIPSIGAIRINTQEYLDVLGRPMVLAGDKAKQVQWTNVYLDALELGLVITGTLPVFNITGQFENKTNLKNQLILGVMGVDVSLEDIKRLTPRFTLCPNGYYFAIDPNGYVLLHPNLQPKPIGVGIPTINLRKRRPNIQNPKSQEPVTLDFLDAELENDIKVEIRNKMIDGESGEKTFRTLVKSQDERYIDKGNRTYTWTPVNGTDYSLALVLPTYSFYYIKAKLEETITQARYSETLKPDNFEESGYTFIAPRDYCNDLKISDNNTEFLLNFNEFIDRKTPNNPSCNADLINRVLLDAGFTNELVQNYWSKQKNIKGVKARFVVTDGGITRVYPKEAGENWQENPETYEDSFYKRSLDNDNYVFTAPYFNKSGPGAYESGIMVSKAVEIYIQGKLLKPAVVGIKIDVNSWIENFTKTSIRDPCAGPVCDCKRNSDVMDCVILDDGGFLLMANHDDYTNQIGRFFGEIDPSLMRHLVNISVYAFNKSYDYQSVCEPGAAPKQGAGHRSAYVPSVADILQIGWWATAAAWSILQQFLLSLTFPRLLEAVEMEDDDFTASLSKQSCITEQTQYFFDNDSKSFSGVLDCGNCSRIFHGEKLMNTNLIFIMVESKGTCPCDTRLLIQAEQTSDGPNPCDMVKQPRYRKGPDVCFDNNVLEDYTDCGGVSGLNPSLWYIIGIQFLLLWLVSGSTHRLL

Row | Ki ([1]; read-out: α2δ-1 binding) [µM] | Ki (Human μ-opioid receptor; read-out: μ-binding) [µM] | Compound | Ki [1] [µM] | Ki (Human μ-opioid receptor) [µM]
1 | 0.5 to 5 | > 0.5 | CCCC(c1nc2cc(N(CC)C(=O)OC(C)(C)C)ccc2c(=O)n1CC)N1C[C@@H](C)N[C@@H](C)C1 (stereo partly drawn) [Example 26, tert-butyl (2-(1-((3S,5R)-3,5-dimethylpiperazin-1-yl)butyl)-3-ethyl-4-oxo-3,4-dihydroquinazolin-7-yl)(ethyl)carbamate] |  | 
2 |  |  | CCCC(c1nc2ccc(Br)c(Cl)c2c(=O)n1CC)N1C[C@@H](C)N[C@@H](C)C1 (stereo partly drawn) [Example 23, 6-bromo-5-chloro-2-(1-((3S,5R)-3,5-dimethylpiperazin-1-yl)butyl)-3-ethylquinazolin-4(3H)-one] | < 0.5 | > 0.5
3 |  |  | CCC[C@H](c1nc2c(F)cc(Cl)cc2c(=O)n1C)N1CCN[C@@H](C)C1 [Example 223, 6-chloro-8-fluoro-3-methyl-2-((R)-1-((S)-3-methylpiperazin-1-yl)butyl)quinazolin-4(3H)-one] | > 5 | < 0.1
4 |  |  | CCC[C@H](c1nc2ccc(Cl)cc2c(=O)n1CC)N1CCN[C@H](C)C1 [Example 101, 6-Chloro-3-ethyl-2-((R)-1-((R)-3-methylpiperazin-1-yl)butyl)quinazolin-4(3H)-one] | < 0.5 | > 0.5
5 |  |  | CCC[C@H](c1nc2c(F)cccc2c(=O)n1CC)N1CCN[C@@H](C)C1 [Example 203, 3-ethyl-8-fluoro-2-((R)-1-((S)-3-methylpiperazin-1-yl)butyl)quinazolin-4(3H)-one] | < 0.5 | > 0.5
6 |  |  | CCCC(c1nc2cccnc2c(=O)n1CC)N1C[C@@H](C)N[C@@H](C)C1 (stereo partly drawn) [Example 27, 2-(1-((3S,5R)-3,5-dimethylpiperazin-1-yl)butyl)-3-ethylpyrido[3,2-d]pyrimidin-4(3H)-one] | < 0.5 | > 0.5
7 |  |  | CCC[C@H](c1nc2ccc(NCC[C@]3(c4ccccn4)CCOC4(CCCC4)C3)cc2c(=O)n1CC)N1C[C@@H](C)N[C@@H](C)C1 [Example 159, 2-((R)-1-((3S,5R)-3,5-dimethylpiperazin-1-yl)butyl)-3-ethyl-6-((2-((S)-9-(pyridin-2-yl)-6-oxaspiro[4.5]decan-9-yl)ethyl)amino)quinazolin-4(3H)-one] | 0.5 to 5 | > 0.5
8 | 0.5 to 5 | > 0.5 | CCCC(c1nc2c(Br)c(OC)ccc2c(=O)n1CC)N1C[C@@H](C)N[C@@H](C)C1 (stereo partly drawn) [Example 5, 8-bromo-2-(1-((3S,5R)-3,5-dimethylpiperazin-1-yl)butyl)-3-ethyl-7-methoxyquinazolin-4(3H)-one] |  | 
9 |  |  | CCC[C@@H](c1nc2ccc(Br)cc2c(=O)n1CC)N1CCN[C@@H](CF)C1 [Example 56, 6-bromo-3-ethyl-2-((S)-1-((R)-3-(fluoromethyl)piperazin-1-yl)butyl)quinazolin-4(3H)-one] | > 5 | > 0.5
10 |  |  | CCCC(c1nc2ccc(Br)c(C)c2c(=O)n1CC)N1C[C@@H](C)N[C@@H](C)C1 (stereo partly drawn) [Example 21, 6-bromo-2-(1-((3S,5R)-3,5-dimethylpiperazin-1-yl)butyl)-3-ethyl-5-methylquinazolin-4(3H)-one] | < 0.5 | > 0.5
11 |  |  | CCC[C@H](c1nc2cc(F)c(Br)cc2c(=O)n1CC)N1CCN[C@@H](C)C1 [Example 106, 6-bromo-3-ethyl-7-fluoro-2-((R)-1-((S)-3-methylpiperazin-1-yl)butyl)quinazolin-4(3H)-one] | < 0.5 | < 0.1
12 |  |  | CCCC(c1nc2ccc(CCO)cc2c(=O)n1CC)N1C[C@@H](C)N[C@@H](C)C1 (stereo partly drawn) [Example 173, 2-(1-((3S,5R)-3,5-Dimethylpiperazin-1-yl)butyl)-3-ethyl-6-(2-hydroxyethyl)quinazolin-4(3H)-one] | < 0.5 | > 0.5
13 |  |  | CCC[C@H](c1nc2ccncc2c(=O)n1CC)N1CCN[C@@H](C)C1 [Example 66, 3-Ethyl-2-((R)-1-((S)-3-methylpiperazin-1-yl)butyl)pyrido[4,3-d]pyrimidin-4(3H)-one] | < 0.5 | > 0.5
14 |  |  | CCC[C@@H](c1nc2ccc(Cl)cc2c(=O)n1CC)N1CCN[C@@H](CF)C1 [Example 231, 6-chloro-3-ethyl-2-((S)-1-((R)-3-(fluoromethyl)piperazin-1-yl)butyl)quinazolin-4(3H)-one] | > 5 | > 0.5
15 |  |  | CCC[C@H](c1nc2cc(F)c(OC)cc2c(=O)n1CC)N1CCN[C@H](C)C1 [Example 210, 3-ethyl-7-fluoro-6-methoxy-2-((R)-1-((R)-3-methylpiperazin-1-yl)butyl)quinazolin-4(3H)-one] | < 0.5 | > 0.5
16 | > 5 | > 0.5 | CCC[C@@H](c1nc2ccc(Br)cc2c(=O)n1CC)N1CCN[C@@H](CCC(=O)O)C1 [Example 107, 3-((S)-4-((S)-1-(6-Bromo-3-ethyl-4-oxo-3,4-dihydroquinazolin-2-yl)butyl)piperazin-2-yl)propanoic acid] |  | 
17 |  |  | CCCC(c1nc2ccc(N3CCC(NC)CC3)cc2c(=O)n1CC)N1C[C@@H](C)N[C@@H](C)C1 (stereo partly drawn) [Example 140, 2-(1-((3S,5R)-3,5-dimethylpiperazin-1-yl)butyl)-3-ethyl-6-(4-(methylamino)piperidin-1-yl)quinazolin-4(3H)-one] | < 0.5 | > 0.5
18 |  |  | CCC[C@H](c1nc2ccc(Br)cc2c(=O)n1CC)N1CCN[C@@H](CO)C1 [Example 60, 6-bromo-3-ethyl-2-((R)-1-((R)-3-(hydroxymethyl)piperazin-1-yl)butyl)quinazolin-4(3H)-one] | < 0.5 | > 0.5

Row | Ki ([1]; read-out: α2δ-1 binding) [µM] | Ki (Human μ-opioid receptor; read-out: μ-binding) [µM] | Compound | Ki [1] [µM] | Ki (Human μ-opioid receptor) [µM]
19 |  |  | CCC[C@H](c1nc2c(F)cc(OC)cc2c(=O)n1CC)N1CCN[C@@H](C)C1 [Example 46, 3-ethyl-8-fluoro-6-methoxy-2-((R)-1-((S)-3-methylpiperazin-1-yl)butyl)quinazolin-4(3H)-one] | < 0.5 | 0.1 to 0.5
20 |  |  | CCC[C@@H](c1nc2c(F)cc(OC)cc2c(=O)n1CC)N1CCNCC1 [Example 37, (S)-3-Ethyl-8-fluoro-6-methoxy-2-(1-(piperazin-1-yl)butyl)quinazolin-4(3H)-one] | > 5 | > 0.5
21 | > 5 | > 0.5 | CCC[C@@H](c1nc2c(F)cc(OC)c(Br)c2c(=O)n1CC)N1CCNCC1 [Example 39, (S)-5-Bromo-3-ethyl-8-fluoro-6-methoxy-2-(1-(piperazin-1-yl)butyl)quinazolin-4(3H)-one] |  | 
22 |  |  | CCC[C@@H](c1nc2ccc(Br)cc2c(=O)n1CC)[C@@H]1CCN[C@@H](C)C1 [Example 192, 6-bromo-3-ethyl-2-((R)-1-((2S,4R)-2-methylpiperidin-4-yl)butyl)quinazolin-4(3H)-one] | > 5 | > 0.5
23 |  |  | CCCC(c1nc2cc(OC)ccc2c(=O)n1CC)N1C[C@@H](C)N[C@@H](C)C1 (stereo partly drawn) [Example 6, 2-(1-((3S,5R)-3,5-dimethylpiperazin-1-yl)butyl)-3-ethyl-7-methoxyquinazolin-4(3H)-one] | < 0.5 | > 0.5
24 |  |  | CCC[C@H](c1nc2ccc(C(NC)c3ccccc3)cc2c(=O)n1CC)N1C[C@@H](C)N[C@@H](C)C1 (stereo partly drawn) [Example 236, 2-((R)-1-((3S,5R)-3,5-Dimethylpiperazin-1-yl)butyl)-3-ethyl-6-((methylamino)(phenyl)methyl)quinazolin-4(3H)-one] | < 0.5 | > 0.5
25 | 0.5 to 5 | > 0.5 | CCC[C@H](c1nc2ccc(F)c(F)c2c(=O)n1C)N1CCN[C@@H](C)C1 [Example 222, 5,6-difluoro-3-methyl-2-((R)-1-((S)-3-methylpiperazin-1-yl)butyl)quinazolin-4(3H)-one] |  | 
26 |  |  | CCC[C@@H](c1nc2ccncc2c(=O)n1CC)N1CCN[C@H](C)C1 [Example 65, 3-ethyl-2-((S)-1-((R)-3-methylpiperazin-1-yl)butyl)pyrido[4,3-d]pyrimidin-4(3H)-one] | > 5 | > 0.5
27 |  |  | CCC[C@H](c1nc2cc(F)c(OC)cc2c(=O)n1CC)N1CCN[C@@H](C)C1 [Example 213, 3-ethyl-7-fluoro-6-methoxy-2-((R)-1-((S)-3-methylpiperazin-1-yl)butyl)quinazolin-4(3H)-one] | < 0.5 | > 0.5
28 |  |  | CCC[C@@H](c1nc2ncc(Br)cc2c(=O)n1CC)N1CCN[C@@H](C)C1 [Example 69, 6-bromo-3-ethyl-2-((S)-1-((S)-3-methylpiperazin-1-yl)butyl)pyrido[2,3-d]pyrimidin-4(3H)-one] | > 5 | > 0.5
29 |  |  | CCC[C@H](c1nc2c(F)cc(Cl)cc2c(=O)n1CC)N1CCNCC1 [Example 199, (R)-6-chloro-3-ethyl-8-fluoro-2-(1-(piperazin-1-yl)butyl)quinazolin-4(3H)-one] | < 0.5 | 0.1 to 0.5
30 |  |  | CCCC(c1nc2ccc(Br)cc2c(=O)n1CCC(=O)O)N1C[C@@H](C)N[C@@H](C)C1 (stereo partly drawn) [Example 125, 3-(6-Bromo-2-(1-((3S,5R)-3,5-dimethylpiperazin-1-yl)butyl)-4-oxoquinazolin-3(4H)-yl)propanoic acid] | 0.5 to 5 | 0.1 to 0.5
31 |  |  | CCC[C@@H](c1nc2ccc(Br)cc2c(=O)n1CC)N1C[C@H](C)N[C@@H](C)C1 [Example 227, 6-Bromo-2-((S)-1-((3S,5S)-3,5-dimethylpiperazin-1-yl)butyl)-3-ethylquinazolin-4(3H)-one] | > 5 | > 0.5
32 |  |  | CCCC(c1nc2ccc(Br)cc2c(=O)n1CCC)N1CCNCC1 (stereo not shown) [Example 82, 6-bromo-2-(1-(piperazin-1-yl)butyl)-3-propylquinazolin-4(3H)-one] | < 0.5 | 0.1 to 0.5
33 |  |  | CCCC(c1nc2cc(Br)ccc2c(=O)n1CC)N1CCNCC1 (stereo not shown) [Example 81, 7-bromo-3-ethyl-2-(1-(piperazin-1-yl)butyl)quinazolin-4(3H)-one] | < 0.5 | > 0.5
34 |  |  | CCCC(c1nc2cc(F)c(Br)cc2c(=O)n1CC)N1CCNCC1 (stereo not shown) [Example 83, 6-bromo-3-ethyl-7-fluoro-2-(1-(piperazin-1-yl)butyl)quinazolin-4(3H)-one] | < 0.5 | 0.1 to 0.5
35 |  |  | CCC[C@H](c1nc2ccc(Br)cc2c(=O)n1CC)N1CCN[C@@H](COC)C1 [Example 219, 6-bromo-3-ethyl-2-((R)-1-((R)-3-(methoxymethyl)piperazin-1-yl)butyl)quinazolin-4(3H)-one] | < 0.5 | > 0.5
